The numbers were not newly measured in patent US20190374461A1, “Treatment apparatus and mechanisms for an infected nail” (priority 2018, published 2019), which cites them from elsewhere.

Structures are written as SMILES. Values joined by “and” are separate entries in the source; they are usually repeats but may differ in a detail not shown here. Identical values can stand only once. Counter-ions that a name gives are not always drawn. Like-named read-outs stand apart in the source and are kept apart here.

The data set has as its system nail infections.

Regarding `C[C@@H](n1cnc2cc(Cl)ccc2c1=O)[C@](O)(Cn1cncn1)c1ccc(F)cc1F` [Albaconazole], the “side effects compared with Lamisil” value (in vivo, po) is on record as “prone to fewer side effects than Lamisil”.

On to `CCC(C)(C)c1ccc(CC(C)CN2C[C@@H](C)O[C@@H](C)C2)cc1` (some centres unmarked) [Amorolfine, amorolfine], for which the cure rates (topical, mild nail infections without nail matrix involvement) is listed as 40 to 55%. The “effectiveness against severe nail infections” value (topical, severe nail infections involving the nail bed) is “not effective”.

Regarding `Cc1cc(C2CCCCC2)n(O)c(=O)c1` [Ciclopirox, ciclopirox], the cure rate result (topical, 8% strength) is “about 8.5%”.

Take `CN(C/C=C/C#CC(C)(C)C)Cc1cccc2ccccc12` [Lamisil, terbinafine hydrochloride]: the mycological cure rate (oral treatment of nail infections) was 46%.

As to `CC[C@@H]([C@H](C)O)n1ncn(-c2ccc(N3CCN(c4ccc(OC[C@@H]5CO[C@@](Cn6cncn6)(c6ccc(F)cc6F)C5)cc4)CC3)cc2)c1=O` [Posaconazole], the “side effects compared with Lamisil” value (oral treatment) is recorded as “prone to fewer side effects than Lamisil”.

Regarding `OB1OCc2cc(F)ccc21` [Tavaborole, tavaborole], the “complete cure, share of patients” value (topical, 600 patients in the study) is given as 6%.

Regarding `C=C1CCN([C@H](C)[C@](O)(Cn2cncn2)c2ccc(F)cc2F)CC1` [efinaconazole], for the setting “topical, only mild infections not involving the nail bed”, the cure rates was 17.8% and 15.2%.
